Test results as given in patent US20130225633A1, “PHENYL HETEROCYCLOALKYL GLUCOCORTICOID RECEPTOR MODULATORS” (Corcept Therapeutics, Inc., priority 2012, published 2013).

Assays:
[1] = target: T1, human recombinant glucocorticoid receptor (Homo sapiens, UniProt P04150); assay: Glucocorticoid receptor binding displacement assay with 3H-dexamethasone (Example 22); details: Examples 1-15: 3H-dexamethasone displacement assay of Example 22; read-out: GR binding Ki
T1 construct: This GR was a full-length steroid hormone receptor; host or cells: baculovirus-infected insect cells
T1 sequence (P04150 1-777): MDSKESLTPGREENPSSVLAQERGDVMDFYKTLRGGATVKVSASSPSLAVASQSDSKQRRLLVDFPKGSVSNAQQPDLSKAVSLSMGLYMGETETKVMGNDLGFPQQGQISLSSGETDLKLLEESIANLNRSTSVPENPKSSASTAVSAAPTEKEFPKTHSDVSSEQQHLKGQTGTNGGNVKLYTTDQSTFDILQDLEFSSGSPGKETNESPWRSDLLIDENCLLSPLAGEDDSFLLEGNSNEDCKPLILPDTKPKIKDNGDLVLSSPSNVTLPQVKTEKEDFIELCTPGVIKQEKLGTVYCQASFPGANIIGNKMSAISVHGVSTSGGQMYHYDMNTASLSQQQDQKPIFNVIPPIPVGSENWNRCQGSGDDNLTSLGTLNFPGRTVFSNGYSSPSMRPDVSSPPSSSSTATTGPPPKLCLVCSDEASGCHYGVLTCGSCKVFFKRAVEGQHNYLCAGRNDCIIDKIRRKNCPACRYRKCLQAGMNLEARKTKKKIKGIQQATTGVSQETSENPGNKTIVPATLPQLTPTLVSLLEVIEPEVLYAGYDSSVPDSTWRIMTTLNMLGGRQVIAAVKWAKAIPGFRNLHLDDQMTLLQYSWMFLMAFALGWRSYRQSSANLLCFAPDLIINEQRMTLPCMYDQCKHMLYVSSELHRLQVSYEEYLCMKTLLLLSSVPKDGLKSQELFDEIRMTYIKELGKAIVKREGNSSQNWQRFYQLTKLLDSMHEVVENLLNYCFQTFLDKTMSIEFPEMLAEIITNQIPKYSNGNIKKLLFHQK
Experimental: Binding protocol: Compounds were tested in a binding displacement assay using human recombinant glucocorticoid receptor with ^3H-dexamethasone as the ligand. The source of the receptor was recombinant baculovirus-infected insect cells. This GR was a full-length steroid hormone receptor likely to be associated with heat-shock and other endogenous proteins.
For the IC50 determinations, test compounds were tested at 6 concentrations in duplicate. Test compounds were diluted from 10 mM stock in 100% DMSO. The tested solutions were prepared at 2× final assay concentration in 2% DMSO/assay buffer.
All reagents and the assay plate were kept on ice during the addition of reagents. The reagents were added to wells of a v-bottomed polypropylene plate in the following order: 25 μl of 10 nM 3H-dexamethasone solution, 50 μl of TB/NSB/compound solution and 25 μl of 2 nM GR solution. After the additions, the incubation mixture was mixed and incubated for 2.5 hrs at 4° C.
After 2.5 hrs incubation, unbound counts were removed with dextran coated charcoal (DCC) as follows: 15 μl of DCC solution (10% DCC in assay buffer) was added to all wells and mixed (total volume 115 μl). The plate was centrifuged at 4000 rpm for 10 minutes at 4° C. 75 μl of the supernatants was carefully pipetted into an optiplate. 150 μl of scintillation cocktail were added (Microscint-40, Perkin Elmer). The plate was vigorously shaken for approximately 10 minutes and counted on a Topcount.
The IC50 values were converted to Ki (the inhibition constant) using the Cheng-Prusoff equation.
Reagents: Assay buffer: 10 mM potassium phosphate buffer pH 7.6 containing 5 mM DTT, 10 mM sodium molybdate, 100 μM EDTA and 0.1% BSA.

[2] = target: T2, glucocorticoid receptors (GR) in SW1353/MMTV-5 cells (Homo sapiens, UniProt P04150); assay: GR reporter gene assay using SW1353/MMTV-5 cells (Example 24); type: cell-based
T2 construct: contains endogenous glucocorticoid receptors; endogenous in cells; host or cells: SW1353/MMTV-5 (human chondrosarcoma, stably transfected with pMAMneo-Luc reporter only)
T2 sequence (P04150 1-777): T1 sequence (P04150 1-777)
Experimental: SW1353/MMTV-5 is an adherent human chondrosarcoma cell line that contains endogenous glucocorticoid receptors. It was transfected with a plasmid (pMAMneo-Luc) encoding firefly luciferase located behind a glucocorticoid-responsive element (GRE) derived from a viral promoter (long terminal repeat of mouse mammary tumor virus). A stable cell line SW1353/MMTV-5 was selected with geneticin, which was required to maintain this plasmid.
SW1353/MMTV-5 cells were distributed in 96-well plates and incubated in medium (without geneticin) for 24 hrs.

Row | SMILES | Ki [1] [nM] | Ki [2] [nM]
1 | COC[C@]12Cc3cnn(-c4ccc(F)cc4)c3C=C1CCN(S(=O)(=O)c1cccc(N3CC[C@H](F)C3)c1)C2 [Example 5, (R)-1-(4-Fluorophenyl)-6-[3-((S)-3-fluoropyrrolidin-1-yl)-benzenesulfonyl]-4a-methoxymethyl-4,4a,5,6,7,8-hexahydro-1H-1,2,6-triaza-cyclopenta[b]naphthalene] | 0.5 to 1 | < 10
2 | COC(=O)[C@]12Cc3cnn(-c4ccc(F)cc4)c3C=C1CCN(S(=O)(=O)c1cccc(N3CC[C@@H](F)C3)c1)C2 [Example 12, (R)-1-(4-Fluoro-phenyl)-6-[3-((R)-3-fluoro-pyrrolidin-1-yl)-benzenesulfonyl]-1,4,5,6,7,8-hexahydro-1,2,6-triaza-cyclopenta[b]naphthalene-4a-carboxylic acid methyl ester] | ≥ 1 | > 20
3 | COC[C@]12Cc3cnn(-c4ccc(F)cc4)c3C=C1CCN(S(=O)(=O)c1ccc(N3CCCC3)cc1)C2 [Example 10, (R)-1-(4-Fluoro-phenyl)-6-[4-(pyrrolidin-1-yl)-benzenesulfonyl]-4a-methoxymethyl-4,4a,5,6,7,8-hexahydro-1H-1,2,6-triaza-cyclopenta[b]naphthalene] | 0.5 to 1 | > 20
4 | CCOC(=O)[C@]12Cc3cnn(-c4ccc(F)cc4)c3C=C1CCN(S(=O)(=O)c1cccc(N3CCCC3)c1)C2 [Example 14, (R)-1-(4-Fluoro-phenyl)-6-[3-(pyrrolidin-1-yl)-benzenesulfonyl]-1,4,5,6,7,8-hexahydro-1,2,6-triaza-cyclopenta[b]naphthalene-4a-carboxylic acid ethyl ester] | 0.5 to 1 | 10 to 20
5 | O=S(=O)(c1cccc(N2CC[C@@H](F)C2)c1)N1CCC2=Cc3c(cnn3-c3ccc(F)cc3)C[C@]2(COCC2CC2)C1 [Example 1, (R)-4a-Cyclopropylmethoxymethyl-1-(4-fluorophenyl)-6-[3-((R)-3-fluoropyrrolidin-1-yl)-benzenesulfonyl]-4,4a,5,6,7,8-hexahydro-1H-1,2,6-triaza-cyclopenta[b]naphthalene] | ≥ 1 | < 10
6 | O=C(OCF)[C@]12Cc3cnn(-c4ccc(F)cc4)c3C=C1CCN(S(=O)(=O)c1cccc(N3CC[C@@H](F)C3)c1)C2 [Example 13, (R)-1-(4-Fluoro-phenyl)-6-[3-((R)-3-fluoro-pyrrolidin-1-yl)-benzenesulfonyl]-1,4,5,6,7,8-hexahydro-1,2,6-triaza-cyclopenta[b]naphthalene-4a-carboxylic acid fluoromethyl ester] | 0.5 to 1 | > 20
7 | O=S(=O)(c1cccc(N2CCCC2)c1)N1CCC2=Cc3c(cnn3-c3ccc(F)cc3)C[C@]2(COCC2CC2)C1 [Example 3, (R)-4a-Cyclopropylmethoxymethyl-1-(4-fluorophenyl)-6-[3-(pyrrolidin-1-yl)-benzenesulfonyl]-4,4a,5,6,7,8-hexahydro-1H-1,2,6-triaza-cyclopenta[b]naphthalene] | ≥ 1 | < 10
8 | COC[C@]12Cc3cnn(-c4ccc(F)cc4)c3C=C1CCN(S(=O)(=O)c1cccc(N3CCCC3)c1)C2 [Example 6, (R)-1-(4-Fluoro-phenyl)-4a-methoxymethyl-6-[3-(pyrrolidin-1-yl)-benzenesulfonyl)-4,4a,5,6,7,8-hexahydro-1H-1,2,6-triaza-cyclopenta[b]naphthalene] | 0.5 to 1 | 10 to 20
9 | COC[C@]12Cc3cnn(-c4ccc(F)cc4)c3C=C1CCN(S(=O)(=O)c1ccc(N3CC[C@@H](F)C3)cc1)C2 [Example 9, (R)-1-(4-Fluoro-phenyl)-6-[4-((R)-3-fluoro-pyrrolidin-1-yl)-benzenesulfonyl]-4a-methoxymethyl-4,4a,5,6,7,8-hexahydro-1H-1,2,6-triaza-cyclopenta[b]naphthalene] | 0.5 to 1 | 10 to 20
